Reference: patent US10774122B2, “ERG targeted therapy” (The Regents of the University of Michigan, priority 2017, dated 2020)
Each block holds one molecule with its values, some of them ahead of it. Where a SMILES comes first, the peptide text is derived from it. The star is where a group is joined. Biotin = O=C1N[C@H]2[C@H](CS[C@H]2CCCCC(=O)*)N1

Tests used:
PSMA = PSMA (Homo sapiens, UniProt Q04609); settings: reported in literature; cited from earlier work
wild-type ERG (wtERG) = biological target: T1, wild-type ERG (wtERG) (Homo sapiens, UniProt P11308); test: Pull-down of purified recombinant proteins with biotin-peptides; format: binding; settings: purified recombinant protein
T1 construct: cDNAs encoding full-length ERG and GUS were cloned into pDEST10 vector; His; made in house; host or cells: SF9 insect cells (Bac-to-Bac baculovirus)
Protocol: (A) Pull-down experiment was performed by incubating purified recombinant proteins and biotin-peptides. (B-C) Representative sensorgrams for both wtERG and ERG_Y373A binding to EIP1. Real-time binding was measured by immobilization of biotinylated proteins to the streptavidin biosensors and subsequent interactions with varying concentrations of synthetic peptides as indicated. (D) Steady-state analysis of real-time binding data for wtERG/ERG_Y373A and synthetic peptides. (E) Electrophoretic mobility shift assay (EMSA) for ERG and ETS binding sequence (EBS).

VCaP ERG = biological target: T2, VCaP ERG (Homo sapiens, UniProt P11308); test: Pull-down from whole cell lysates normalized for ERG levels; format: binding
T2 construct: endogenous in cells; host or cells: VCaP cells (ATCC): cultured cells, lysates or extracts, or VCaP xenograft tumours in nude mice
Protocol: (§1) Approximately 1 mg of soluble VCaP cell lysate prepared in RIPA buffer (Invitrogen) was incubated with varying amounts of biotinylated peptides for 2 hours at 4° C. HaloLink agarose beads (20 μl) were added to the peptide-lysate mixture and incubated for an additional 4 hours. Beads were then pelleted by centrifugation, washed three times in PBS-T and loaded into an SDSPAGE gel followed by Western blot analysis. Total VCaP cell lysate was loaded for positive control.
It was then determined whether RI-EIP affects normal ERG function.

HUVEC ERG = biological target: T3, HUVEC ERG (Homo sapiens, UniProt P11308); test: as above; format: binding
T3 construct: wild-type ERG expressed in human or murine endothelial cells; endogenous in cells; host or cells: HUVEC (human umbilical vein endothelial cells)

[1] = human, in vivo; cited from earlier work
[2] = biological target: T4, TMPRSS2:ERG gene fusion product (endogenous ERG) (Homo sapiens, UniProt P11308); test: Biotin-peptide pull-down from VCaP cell lysates, immunoblot and mass spectrometry; format: binding; settings: 53 kDa band of pull-downs, mass spectrometry
T4 construct: endogenous in cells; host or cells: VCaP cells (ATCC): cultured cells, lysates or extracts, or VCaP xenograft tumours in nude mice
Protocol: as §1
The samples were treated with SDS loading buffer supplied with 10 mM DTT for 5 min at 85° C. The proteins were alkylated by adding iodoacetamide to the final concentration of 15 mM. The samples were subjected to SDS-PAGE and the whole lanes were cut out and digested with trypsin in-gel for 2 hours. […]
The resulting spectrum files were transformed into MGF format by MSConvert software and interrogated by MASCOT 2.4 search engine using human UniProt database version 15 concatenated with reverse sequences for estimation of false discovery rate (FDR) and with a list of common contaminants. […] The peptide FDR was calculated as 2×(decoy_hits)/(target+decoy hits). Spectral counts for all detected proteins were assembled using an in-house written Python script. […]

ERG [3] = biological target: T5, ERG (Homo sapiens, UniProt P11308)
T5 sequence (P11308 1-479): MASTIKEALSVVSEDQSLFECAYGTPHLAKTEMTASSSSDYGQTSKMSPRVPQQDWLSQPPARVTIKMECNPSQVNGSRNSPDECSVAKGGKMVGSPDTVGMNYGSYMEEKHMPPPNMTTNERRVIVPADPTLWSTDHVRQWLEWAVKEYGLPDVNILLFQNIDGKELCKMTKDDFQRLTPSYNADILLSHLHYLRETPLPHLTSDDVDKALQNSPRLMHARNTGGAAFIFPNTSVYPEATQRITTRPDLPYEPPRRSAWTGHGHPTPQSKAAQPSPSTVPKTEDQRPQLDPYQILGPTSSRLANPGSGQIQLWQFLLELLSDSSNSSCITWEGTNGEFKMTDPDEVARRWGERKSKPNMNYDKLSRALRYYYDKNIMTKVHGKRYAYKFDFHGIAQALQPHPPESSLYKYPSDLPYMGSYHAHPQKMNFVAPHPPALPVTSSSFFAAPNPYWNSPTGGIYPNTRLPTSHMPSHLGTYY
Text: (§2) Halo fusion proteins were expressed using the TNT® SP6 High-Yield Wheat Germ kit (Promega) following the manufacturer's protocol.

ERG_Y373A = ERG_Y373A (Homo sapiens, UniProt P11308, Y373A)
Sequence of ERG_Y373A (P11308 whole entry Y373A): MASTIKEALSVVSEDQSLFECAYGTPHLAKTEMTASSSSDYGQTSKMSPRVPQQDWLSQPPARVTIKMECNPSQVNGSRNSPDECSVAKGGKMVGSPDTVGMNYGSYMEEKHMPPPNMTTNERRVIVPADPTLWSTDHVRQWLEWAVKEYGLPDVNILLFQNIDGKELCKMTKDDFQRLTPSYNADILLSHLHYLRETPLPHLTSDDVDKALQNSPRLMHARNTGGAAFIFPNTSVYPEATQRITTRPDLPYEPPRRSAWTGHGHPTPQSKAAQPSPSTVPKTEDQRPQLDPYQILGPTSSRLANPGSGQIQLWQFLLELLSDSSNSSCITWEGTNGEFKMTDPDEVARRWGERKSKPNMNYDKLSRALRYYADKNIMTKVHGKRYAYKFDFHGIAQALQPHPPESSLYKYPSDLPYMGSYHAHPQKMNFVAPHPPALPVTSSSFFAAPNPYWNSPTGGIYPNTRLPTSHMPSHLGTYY
Text: as §2

ERG [4] = biological target: T5, ERG; remark: listed apart in the source
Protocol: The interaction coefficients between ERG and synthetic peptides or peptidomimetics were determined by biolayer interferometry technology using the Octet Red system (ForteBio). Purified ERG and GUS proteins were biotinylated by EZLink NHS-PEG4 Biotinylation Kit (Thermo Scientific) following the manufacturer's protocol and any unincorporated biotin was removed from the reactions with Zeba 2 ml desalt columns (Thermo). Biotinylated proteins (500 μg/ml) were then incubated with super streptavidin biosensors in binding buffer (20 mM HEPES pH 7.4, 150 mM NaCl), blocked with 10 μg/ml biocytin and washed three times in binding buffer. Peptides were serially diluted in binding buffer, mixed with the protein-coupled biosensors and peptidomimetic:protein association/dissociation was monitored for 10 min at 25° C. Nonspecific binding from the signal obtained from peptidomimetic:GUS interactions was subtracted from that of peptidomimetic:ERG interactions and baseline signal drift was controlled by monitoring immobilized ERG without peptide. Octet Red analysis software was used to analyze the data.

GRPR = GRPR (Homo sapiens, UniProt P30550); settings: Peptides 13, 775 (1992); cited from earlier work
Sequence of GRPR (P30550 whole entry, species assumed): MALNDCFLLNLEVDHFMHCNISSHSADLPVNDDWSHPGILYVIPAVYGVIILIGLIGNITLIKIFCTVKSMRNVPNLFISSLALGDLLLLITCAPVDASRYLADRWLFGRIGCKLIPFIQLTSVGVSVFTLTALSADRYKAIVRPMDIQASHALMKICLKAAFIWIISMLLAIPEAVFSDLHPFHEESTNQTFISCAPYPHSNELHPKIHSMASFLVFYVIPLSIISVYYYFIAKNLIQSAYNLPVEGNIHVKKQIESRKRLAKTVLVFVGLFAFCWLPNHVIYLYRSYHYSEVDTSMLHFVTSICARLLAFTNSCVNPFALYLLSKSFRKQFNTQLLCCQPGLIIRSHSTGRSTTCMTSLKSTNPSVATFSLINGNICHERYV

Sequence of PSMA (Q04609 whole entry): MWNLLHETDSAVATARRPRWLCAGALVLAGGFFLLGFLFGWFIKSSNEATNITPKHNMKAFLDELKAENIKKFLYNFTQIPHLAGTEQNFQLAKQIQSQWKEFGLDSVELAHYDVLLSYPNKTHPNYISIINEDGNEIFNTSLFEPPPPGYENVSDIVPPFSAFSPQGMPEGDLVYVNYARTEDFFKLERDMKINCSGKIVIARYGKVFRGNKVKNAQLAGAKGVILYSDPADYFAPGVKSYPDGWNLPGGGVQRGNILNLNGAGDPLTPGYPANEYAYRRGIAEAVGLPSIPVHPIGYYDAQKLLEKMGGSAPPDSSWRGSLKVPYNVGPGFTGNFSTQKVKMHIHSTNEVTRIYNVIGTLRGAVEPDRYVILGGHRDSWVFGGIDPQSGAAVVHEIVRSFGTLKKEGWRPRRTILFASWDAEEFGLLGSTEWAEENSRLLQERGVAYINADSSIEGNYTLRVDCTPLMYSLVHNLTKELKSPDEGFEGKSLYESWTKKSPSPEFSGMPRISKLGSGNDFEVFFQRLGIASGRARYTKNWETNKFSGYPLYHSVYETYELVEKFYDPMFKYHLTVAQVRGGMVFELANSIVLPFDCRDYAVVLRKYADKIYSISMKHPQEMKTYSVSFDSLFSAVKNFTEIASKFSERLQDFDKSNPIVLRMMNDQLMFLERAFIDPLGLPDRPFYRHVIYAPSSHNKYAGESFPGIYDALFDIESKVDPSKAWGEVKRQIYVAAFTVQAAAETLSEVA

Molecule: O=C(O)CC[C@H](NC(=O)N[C@@H](CCCCN(Cc1ccc(Br)cc1)C(=O)CCOCCOCCOCCOCCOCCOCCOCCOCCOCCOCCOCCOCCNC(=O)CCCC[C@@H]1SC[C@@H]2NC(=O)N[C@@H]21)C(=O)O)C(=O)O [Analogue 3]
- IC50 (PSMA): 1.3 nM

Molecule: CCNC(=O)[C@@H]1CCCN1C(=O)[C@H](CCCNC(=N)N)NC(=O)[C@H](CC(C)C)NC(=O)[C@@H](CC(C)C)NC(=O)[C@H](Cc1ccc(O)cc1)NC(=O)[C@H](CO)NC(=O)[C@H](Cc1c[nH]c2ccccc12)NC(=O)[C@H](Cc1c[nH]cn1)NC(=O)[C@@H]1CCC(=O)N1 [Leuprolide, pyro-EHWSY1LRP-NHEt]
- half life [1]: 3 h

Molecule: fQWAVaHLM-OMe
- affinity as GRPR antagonist (GRPR): good affinity

The remaining lines, values ahead:

- pull-down of wtERG (wild-type ERG (wtERG)): pulled down
- amount of cell lysate for ERG pull-down (VCaP ERG): 0.25 mg/mL
- amount of cell lysate for ERG pull-down (HUVEC ERG): 8 mg/mL
Molecule: CC(C)C[C@H](NC(=O)[C@H](Cc1ccc(O)cc1)NC(=O)[C@@H]1CCCN1C(=O)[C@@H]1CCCN1C(=O)[C@H](CC(C)C)NC(=O)CCCC[C@@H]1SC[C@@H]2NC(=O)N[C@@H]21)C(=O)N[C@@H](Cc1ccccc1)C(=O)N[C@H](C(=O)O)[C@@H](C)O [Biotin-EIP1, Biotin-LPPYLFT] (Biotin-LPPYLFT-OH)

- spectral counts for the ERG peptide NTGGAAFIFPNTSVYPEATQR [2]: 111 spectral counts
- interaction with ERG (ERG [3]): interact strongly
- interaction with ERG (Y373A) (ERG_Y373A): No interaction was detected
Molecule: CC(C)C[C@H](NC(=O)CCCC[C@@H]1SC[C@@H]2NC(=O)N[C@@H]21)C(=O)N[C@@H](CO)C(=O)N[C@@H](Cc1ccccc1)C(=O)NCC(=O)N[C@@H](CO)C(=O)N[C@@H](CC(C)C)C(=O)N1CCC[C@H]1C(=O)O [biotin-EIP2, Biotin-LSFGSLP] (Biotin-LSFGSLP-OH)

- binding to ERG (ERG [4]): most potent truncated peptides
Molecule: H-PYLFT-NH2 [Compound 5PT-N, NH2-PYLFT-NH2]
